In ChEMBL document CHEMBL5380794, “Discovery of a Potent and Selective STAT5 PROTAC Degrader with Strong Antitumor Activity In Vivo in Acute Myeloid Leukemia” (J Med Chem, 2023):
Activity calls are given as the source filed them. The rule behind the calls is not given here.

Columns and labels:
[1] = Antiproliferative activity against human Kasumi-3 cells assessed as cell growth inhibition measured for 4 days by celltiter-glo assay; conditions: Kasumi-3, 96 h
MV4-11 [2] = experiment: Antitumor activity against human MV4-11 cells xenografted in SCID mouse assessed as tumor growth inhibition at 200 mg/kg, ip administered 5 days a week for 3 weeks; type: functional; conditions: MV4-11, 504 h, read-out: TGI
STAT5A/STAT5B [3] = target: T1, STAT5A/STAT5B (Homo sapiens, UniProt P42229+P51692); experiment: Induction of STAT5A/5B degradation in human SKNO-1 cells measured for 18 hrs by immunoblotting analysis; type: cell-based
T1 sequence (P42229 whole entry): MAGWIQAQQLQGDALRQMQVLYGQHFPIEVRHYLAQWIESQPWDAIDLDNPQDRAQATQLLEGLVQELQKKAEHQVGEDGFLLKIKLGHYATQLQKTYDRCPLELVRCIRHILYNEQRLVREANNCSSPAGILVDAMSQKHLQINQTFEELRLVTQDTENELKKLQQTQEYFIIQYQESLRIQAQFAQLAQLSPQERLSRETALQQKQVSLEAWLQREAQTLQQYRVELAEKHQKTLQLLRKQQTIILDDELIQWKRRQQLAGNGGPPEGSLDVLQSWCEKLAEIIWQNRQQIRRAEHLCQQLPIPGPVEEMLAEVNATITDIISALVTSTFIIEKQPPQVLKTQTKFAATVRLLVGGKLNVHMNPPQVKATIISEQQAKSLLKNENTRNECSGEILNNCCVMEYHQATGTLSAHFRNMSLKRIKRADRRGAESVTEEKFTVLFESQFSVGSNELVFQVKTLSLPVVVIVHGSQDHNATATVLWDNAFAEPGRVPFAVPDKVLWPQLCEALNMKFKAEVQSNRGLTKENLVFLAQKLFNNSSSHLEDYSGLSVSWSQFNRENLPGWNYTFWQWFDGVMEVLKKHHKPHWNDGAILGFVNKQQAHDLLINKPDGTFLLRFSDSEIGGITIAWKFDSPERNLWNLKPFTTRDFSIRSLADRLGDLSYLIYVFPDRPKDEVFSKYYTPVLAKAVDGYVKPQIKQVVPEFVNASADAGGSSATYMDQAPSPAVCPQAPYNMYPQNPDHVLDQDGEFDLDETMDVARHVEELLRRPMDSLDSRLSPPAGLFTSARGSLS
T1 sequence (P51692 whole entry): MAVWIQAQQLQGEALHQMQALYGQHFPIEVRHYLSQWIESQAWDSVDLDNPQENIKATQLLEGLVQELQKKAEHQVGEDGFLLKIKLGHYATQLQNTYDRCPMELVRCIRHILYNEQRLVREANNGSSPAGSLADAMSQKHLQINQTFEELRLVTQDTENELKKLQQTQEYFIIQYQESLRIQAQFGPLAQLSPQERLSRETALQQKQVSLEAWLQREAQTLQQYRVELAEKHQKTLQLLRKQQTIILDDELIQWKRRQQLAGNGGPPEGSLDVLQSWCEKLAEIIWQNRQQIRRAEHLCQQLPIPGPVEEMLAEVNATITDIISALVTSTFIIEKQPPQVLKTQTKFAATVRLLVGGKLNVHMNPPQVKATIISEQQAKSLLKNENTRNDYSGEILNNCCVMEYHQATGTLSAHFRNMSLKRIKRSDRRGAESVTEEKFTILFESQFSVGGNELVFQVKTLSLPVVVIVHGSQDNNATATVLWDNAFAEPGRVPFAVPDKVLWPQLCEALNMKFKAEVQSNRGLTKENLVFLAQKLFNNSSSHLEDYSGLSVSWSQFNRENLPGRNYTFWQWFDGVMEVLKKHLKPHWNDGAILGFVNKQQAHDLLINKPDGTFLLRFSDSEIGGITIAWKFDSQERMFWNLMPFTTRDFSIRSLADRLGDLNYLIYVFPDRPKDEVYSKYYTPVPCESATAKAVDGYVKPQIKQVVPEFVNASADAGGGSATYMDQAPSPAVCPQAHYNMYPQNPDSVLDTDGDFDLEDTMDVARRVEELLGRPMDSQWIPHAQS

SKNO-1 [4] = experiment: Effect on STAT6 level in human SKNO-1 cells upto 5 uM measured for 18 hrs by Western blot analysis; type: functional, cell-based
[5] = Apparent volume of distribution in SCID mouse at 150 mg/kg, ip; type: ADME, organism-based; conditions: in vivo
[6] = In vivo induction of degradation of STAT5 in human MV4-11 cells xenografted in SCID mouse assessed as reduction in STAT5 phosphorylation at Y694 residue at 150 mg/kg, ip measured at 1 to 24 hrs by immunoblotting analysis; type: functional; parameters: scale not given: the % may be the effect or the level left; conditions: time 1-24 hrs
STAT5A/STAT5B [7] = target: T1, STAT5A/STAT5B; experiment: Induction of STAT5A/5B degradation in human BDCM cells measured for 18 hrs by immunoblotting analysis; type: cell-based
MV4-11 [8] = experiment: Antitumor activity against human MV4-11 cells xenografted in SCID mouse assessed as tumor growth inhibition at 50 mg/kg, ip administered 5 days a week for 3 weeks; type: functional; conditions: MV4-11, 504 h, read-out: TGI
RS4-11 [9] = experiment: Antiproliferative activity against human RS4-11 cells assessed as maximal cell growth inhibition measured for 4 days by celltiter-glo assay relative to control; type: functional; conditions: time 4 day
OCI-AML2 [10] = experiment: Antiproliferative activity against human OCI-AML2 cells assessed as cell growth inhibition measured for 4 days by celltiter-glo assay; conditions: OCI-AML2, 96 h
[11] = In vivo induction of degradation of STAT5 in human MV4-11 cells xenografted in SCID mouse assessed as reduction in STAT5 phosphorylation at Y694 residue at 150 mg/kg, ip measured at 24 hrs by immunoblotting analysis; type: functional; parameters: scale not given: the % may be the effect or the level left
[12] = target: T2, Signal transducer and activator of transcription 5A (Homo sapiens, UniProt P42229); experiment: Induction of STAT5 degradation in human Kasumi-3 cells assessed as reduction in phosphorylated STAT5 level measured for 18 hrs by immunoblotting analysis; type: cell-based
T2 sequence (P42229 whole entry): T1 sequence (P42229 whole entry)

RS4-11 [13] = experiment: Antiproliferative activity against human RS4-11 cells assessed as cell growth inhibition measured for 4 days by celltiter-glo assay; conditions: RS4-11, 96 h
SKNO-1 [14] = experiment: Effect on STAT1 level in human SKNO-1 cells upto 5 uM measured for 18 hrs by Western blot analysis; type: functional, cell-based
SKNO-1 [15] = experiment: Effect on STAT3 level in human SKNO-1 cells upto 5 uM measured for 18 hrs by Western blot analysis; type: functional, cell-based
OCI-AML2 [16] = experiment: Antiproliferative activity against human OCI-AML2 cells assessed as maximal cell growth inhibition measured for 4 days by celltiter-glo assay relative to control; type: functional; conditions: time 4 day
SKNO-1 [17] = experiment: Effect on STAT2 level in human SKNO-1 cells upto 5 uM measured for 18 hrs by Western blot analysis; type: functional, cell-based
[18] = target: T2, Signal transducer and activator of transcription 5A; experiment: Induction of STAT5 degradation in human SKNO-1 cells measured for 18 hrs by Western blot analysis; type: cell-based
[19] = Antiproliferative activity against human BDCM cells assessed as maximal cell growth inhibition measured for 4 days by celltiter-glo assay relative to control; type: functional; conditions: time 4 day
[20] = target: T2, Signal transducer and activator of transcription 5A; experiment: Induction of STAT5 degradation in human MV4-11 cells assessed as reduction in phosphorylated STAT5 level measured for 6 hrs by immunoblotting analysis; type: cell-based
MV4-11 [21] = experiment: Effect on STAT2 level in human MV4-11 cells upto 5 uM measured for 18 hrs by Western blot analysis; type: functional, cell-based

DC50 (STAT5A/STAT5B [3]): 80 nM | Vz [5]: 2.1 L/kg | DC50 (STAT5A/STAT5B [7]): 410 nM | IC50 (OCI-AML2 [10]): > 15000 nM | DC50 [12]: 250 nM | IC50 (RS4-11 [13]): > 15000 nM | DC50 [18]: 100 nM | DC50 [20]: 60 nM
Compound: CN(CCCC#Cc1cccc2c1CN(C1CCC(=O)NC1=O)C2=O)C(=O)CCN(C(=O)[C@@H]1CCCN1C(=O)[C@@H](NC(=O)c1cc2cc(C(F)(F)P(=O)(O)O)ccc2s1)C(C)(C)C)c1ccc(-c2nccs2)cc1 (stereo partly specified)
IC50 [1]: 350 nM | inhibition in vivo at 200 mg/kg (MV4-11 [2]): 80% | Activity (SKNO-1 [4]): inactive | Activity [6]: >95% | inhibition in vivo at 50 mg/kg (MV4-11 [8]): 50% | Imax (RS4-11 [9]): <5% | Activity [11]: >70% | Activity (SKNO-1 [14]): inactive | Activity (SKNO-1 [15]): inactive | Imax (OCI-AML2 [16]): <5% | Activity (SKNO-1 [17]): inactive | Imax [19]: <5% | Activity (MV4-11 [21]): inactive
